According to US10986838B2, “Herbicides” (SYNGENTA PARTICIPATIONS AG, priority 2016, dated 2021):

system: Echinochloa crus-galli (ECHCG); experiment: Pre-emergence herbicidal activity (B1); assay type: in vivo; settings: Test 1a, 1000 g/ha, evaluated after 13 days, 5=total damage to plant, 0=no damage to plant
How it was run: (§1)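 Glasshouse pre-emergence spray test: compound in acetone/water (50:50), 0.5% Tween 20, applied one day after sowing; plants kept at 24/16 °C day/night, 14 h light, 65% humidity, then scored 0–5 for damage after 13 days.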

Row | Compound | ECHCG damage score
1 | N#Cc1cncc(-c2ccc(N)c(C(F)(F)F)n2)c1 [Compound A2] | 2
2 | Fc1cncc(-c2ccc(N3CCC3)c(C(F)(F)F)n2)c1 [Compound A63] | 2
3 | Fc1cncc(-c2ccc(NCCc3ccccc3)c(C(F)(F)F)n2)c1 [Compound A49] | 3
4 | Fc1cncc(-c2ccc(N3CCCC3)c(C(F)(F)F)n2)c1 [Compound A40] | 4
5 | Fc1cncc(-c2ccc(N3CCOCC3)c(C(F)(F)F)n2)c1 [Compound A39, 4-[6-(5-fluoro-3-pyridyl)-2-(trifluoromethyl)-3-pyridyl]morpholine] | 3
6 | Fc1cncc(-c2ccc(NCC3CCC3)c(C(F)(F)F)n2)c1 [Compound A51, N-(cyclobutylmethyl)-6-(5-fluoro-3-pyridyl)-2-(trifluoromethyl)pyridin-3-amine] | 5
7 | Cc1nc(-c2cncc(OC(F)F)c2)ccc1N [Compound A4] | 1

system: Avena fatua (AVEFA); experiment: Pre-emergence herbicidal activity (B1); assay type: in vivo; settings: Test 1a, 1000 g/ha, evaluated after 13 days, 5=total damage to plant, 0=no damage to plant
How it was run: as §1

Row | Compound | AVEFA damage score
8 | N#Cc1cncc(-c2ccc(N)c(C(F)(F)F)n2)c1 [Compound A2] | 0
9 | Fc1cncc(-c2ccc(N3CCC3)c(C(F)(F)F)n2)c1 [Compound A63] | 0
10 | Fc1cncc(-c2ccc(NCCc3ccccc3)c(C(F)(F)F)n2)c1 [Compound A49] | 1
11 | Fc1cncc(-c2ccc(N3CCCC3)c(C(F)(F)F)n2)c1 [Compound A40] | 1
12 | Fc1cncc(-c2ccc(N3CCOCC3)c(C(F)(F)F)n2)c1 [Compound A39, 4-[6-(5-fluoro-3-pyridyl)-2-(trifluoromethyl)-3-pyridyl]morpholine] | 0
13 | Fc1cncc(-c2ccc(NCC3CCC3)c(C(F)(F)F)n2)c1 [Compound A51, N-(cyclobutylmethyl)-6-(5-fluoro-3-pyridyl)-2-(trifluoromethyl)pyridin-3-amine] | 1
14 | Cc1nc(-c2cncc(OC(F)F)c2)ccc1N [Compound A4] | 0

system: Lolium perenne (LOLPE); experiment: Pre-emergence herbicidal activity (B1); assay type: in vivo; settings: Test 1a, 1000 g/ha, evaluated after 13 days, 5=total damage to plant, 0=no damage to plant
How it was run: as §1

Row | Compound | LOLPE damage score
15 | N#Cc1cncc(-c2ccc(N)c(C(F)(F)F)n2)c1 [Compound A2] | 1
16 | Fc1cncc(-c2ccc(N3CCC3)c(C(F)(F)F)n2)c1 [Compound A63] | 0
17 | Fc1cncc(-c2ccc(NCCc3ccccc3)c(C(F)(F)F)n2)c1 [Compound A49] | 1
18 | Fc1cncc(-c2ccc(N3CCCC3)c(C(F)(F)F)n2)c1 [Compound A40] | 1
19 | Fc1cncc(-c2ccc(N3CCOCC3)c(C(F)(F)F)n2)c1 [Compound A39, 4-[6-(5-fluoro-3-pyridyl)-2-(trifluoromethyl)-3-pyridyl]morpholine] | 0
20 | Fc1cncc(-c2ccc(NCC3CCC3)c(C(F)(F)F)n2)c1 [Compound A51, N-(cyclobutylmethyl)-6-(5-fluoro-3-pyridyl)-2-(trifluoromethyl)pyridin-3-amine] | 1
21 | Cc1nc(-c2cncc(OC(F)F)c2)ccc1N [Compound A4] | 1

system: Setaria faberi (SETFA); experiment: Pre-emergence herbicidal activity (B1); assay type: in vivo; settings: Test 1a, 1000 g/ha, evaluated after 13 days, 5=total damage to plant, 0=no damage to plant
How it was run: as §1

Row | Compound | SETFA damage score
22 | N#Cc1cncc(-c2ccc(N)c(C(F)(F)F)n2)c1 [Compound A2] | 4
23 | Fc1cncc(-c2ccc(N3CCC3)c(C(F)(F)F)n2)c1 [Compound A63] | 5
24 | Fc1cncc(-c2ccc(NCCc3ccccc3)c(C(F)(F)F)n2)c1 [Compound A49] | 5
25 | Fc1cncc(-c2ccc(N3CCCC3)c(C(F)(F)F)n2)c1 [Compound A40] | 4
26 | Fc1cncc(-c2ccc(N3CCOCC3)c(C(F)(F)F)n2)c1 [Compound A39, 4-[6-(5-fluoro-3-pyridyl)-2-(trifluoromethyl)-3-pyridyl]morpholine] | 3
27 | Fc1cncc(-c2ccc(NCC3CCC3)c(C(F)(F)F)n2)c1 [Compound A51, N-(cyclobutylmethyl)-6-(5-fluoro-3-pyridyl)-2-(trifluoromethyl)pyridin-3-amine] | 5
28 | Cc1nc(-c2cncc(OC(F)F)c2)ccc1N [Compound A4] | 2

system: Alopecurus myosuroides (ALOMY); experiment: Pre-emergence herbicidal activity (B1); assay type: in vivo; settings: Test 1a, 1000 g/ha, evaluated after 13 days, 5=total damage to plant, 0=no damage to plant
How it was run: as §1

Row | Compound | ALOMY damage score
29 | N#Cc1cncc(-c2ccc(N)c(C(F)(F)F)n2)c1 [Compound A2] | 0
30 | Fc1cncc(-c2ccc(N3CCC3)c(C(F)(F)F)n2)c1 [Compound A63] | 0
31 | Fc1cncc(-c2ccc(NCCc3ccccc3)c(C(F)(F)F)n2)c1 [Compound A49] | 0
32 | Fc1cncc(-c2ccc(N3CCCC3)c(C(F)(F)F)n2)c1 [Compound A40] | 1
33 | Fc1cncc(-c2ccc(N3CCOCC3)c(C(F)(F)F)n2)c1 [Compound A39, 4-[6-(5-fluoro-3-pyridyl)-2-(trifluoromethyl)-3-pyridyl]morpholine] | 0
34 | Fc1cncc(-c2ccc(NCC3CCC3)c(C(F)(F)F)n2)c1 [Compound A51, N-(cyclobutylmethyl)-6-(5-fluoro-3-pyridyl)-2-(trifluoromethyl)pyridin-3-amine] | 1
35 | Cc1nc(-c2cncc(OC(F)F)c2)ccc1N [Compound A4] | 0

system: Triticum aestivium (TRZAW); experiment: Pre-emergence herbicidal activity (B1); assay type: in vivo; settings: Test 1a, 1000 g/ha, evaluated after 13 days, 5=total damage to plant, 0=no damage to plant
How it was run: as §1

Row | Compound | TRAZW damage score
36 | N#Cc1cncc(-c2ccc(N)c(C(F)(F)F)n2)c1 [Compound A2] | 0
37 | Fc1cncc(-c2ccc(N3CCC3)c(C(F)(F)F)n2)c1 [Compound A63] | 0
38 | Fc1cncc(-c2ccc(NCCc3ccccc3)c(C(F)(F)F)n2)c1 [Compound A49] | 0
39 | Fc1cncc(-c2ccc(N3CCCC3)c(C(F)(F)F)n2)c1 [Compound A40] | 0
40 | Fc1cncc(-c2ccc(N3CCOCC3)c(C(F)(F)F)n2)c1 [Compound A39, 4-[6-(5-fluoro-3-pyridyl)-2-(trifluoromethyl)-3-pyridyl]morpholine] | 0
41 | Fc1cncc(-c2ccc(NCC3CCC3)c(C(F)(F)F)n2)c1 [Compound A51, N-(cyclobutylmethyl)-6-(5-fluoro-3-pyridyl)-2-(trifluoromethyl)pyridin-3-amine] | 1
42 | Cc1nc(-c2cncc(OC(F)F)c2)ccc1N [Compound A4] | 0

system: Echinochloa crus-galli (ECHCG); experiment: Post-emergence herbicidal activity (B2); assay type: in vivo; settings: Test B2a, 1000 g/ha, evaluated after 13 days, 5=total damage to plant, 0=no damage to plant
How it was run: (§2)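 Damage was rated 13 days after treatment, from 0 (none) to 5 (plant killed). Treatment was a foliar spray of active ingredient in 50:50 acetone/water with 0.5% Tween 20, applied to 8-day-old plants. Plants were kept at 24/16 °C with 14 h light and 65% humidity.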

Row | Compound | ECHCG damage score
43 | N#Cc1cncc(-c2ccc(N)c(C(F)(F)F)n2)c1 [Compound A2] | 4
44 | Fc1cncc(-c2ccc(N3CCC3)c(C(F)(F)F)n2)c1 [Compound A63] | 3
45 | Fc1cncc(-c2ccc(NCCc3ccccc3)c(C(F)(F)F)n2)c1 [Compound A49] | 3
46 | Fc1cncc(-c2ccc(N3CCCC3)c(C(F)(F)F)n2)c1 [Compound A40] | 5
47 | Fc1cncc(-c2ccc(N3CCOCC3)c(C(F)(F)F)n2)c1 [Compound A39, 4-[6-(5-fluoro-3-pyridyl)-2-(trifluoromethyl)-3-pyridyl]morpholine] | 4
48 | Fc1cncc(-c2ccc(NCC3CCC3)c(C(F)(F)F)n2)c1 [Compound A51, N-(cyclobutylmethyl)-6-(5-fluoro-3-pyridyl)-2-(trifluoromethyl)pyridin-3-amine] | 5
49 | Cc1nc(-c2cncc(OC(F)F)c2)ccc1N [Compound A4] | 2

system: Avena fatua (AVEFA); experiment: Post-emergence herbicidal activity (B2); assay type: in vivo; settings: Test B2a, 1000 g/ha, evaluated after 13 days, 5=total damage to plant, 0=no damage to plant
How it was run: as §2

Row | Compound | AVEFA damage score
50 | N#Cc1cncc(-c2ccc(N)c(C(F)(F)F)n2)c1 [Compound A2] | 3
51 | Fc1cncc(-c2ccc(N3CCC3)c(C(F)(F)F)n2)c1 [Compound A63] | 3
52 | Fc1cncc(-c2ccc(NCCc3ccccc3)c(C(F)(F)F)n2)c1 [Compound A49] | 3
53 | Fc1cncc(-c2ccc(N3CCCC3)c(C(F)(F)F)n2)c1 [Compound A40] | 3
54 | Fc1cncc(-c2ccc(N3CCOCC3)c(C(F)(F)F)n2)c1 [Compound A39, 4-[6-(5-fluoro-3-pyridyl)-2-(trifluoromethyl)-3-pyridyl]morpholine] | 2
55 | Fc1cncc(-c2ccc(NCC3CCC3)c(C(F)(F)F)n2)c1 [Compound A51, N-(cyclobutylmethyl)-6-(5-fluoro-3-pyridyl)-2-(trifluoromethyl)pyridin-3-amine] | 4
56 | Cc1nc(-c2cncc(OC(F)F)c2)ccc1N [Compound A4] | 3

system: Lolium perenne (LOLPE); experiment: Post-emergence herbicidal activity (B2); assay type: in vivo; settings: Test B2a, 1000 g/ha, evaluated after 13 days, 5=total damage to plant, 0=no damage to plant
How it was run: as §2

Row | Compound | LOLPE damage score
57 | N#Cc1cncc(-c2ccc(N)c(C(F)(F)F)n2)c1 [Compound A2] | 2
58 | Fc1cncc(-c2ccc(N3CCC3)c(C(F)(F)F)n2)c1 [Compound A63] | 2
59 | Fc1cncc(-c2ccc(NCCc3ccccc3)c(C(F)(F)F)n2)c1 [Compound A49] | 3
60 | Fc1cncc(-c2ccc(N3CCCC3)c(C(F)(F)F)n2)c1 [Compound A40] | 2
61 | Fc1cncc(-c2ccc(N3CCOCC3)c(C(F)(F)F)n2)c1 [Compound A39, 4-[6-(5-fluoro-3-pyridyl)-2-(trifluoromethyl)-3-pyridyl]morpholine] | 2
62 | Fc1cncc(-c2ccc(NCC3CCC3)c(C(F)(F)F)n2)c1 [Compound A51, N-(cyclobutylmethyl)-6-(5-fluoro-3-pyridyl)-2-(trifluoromethyl)pyridin-3-amine] | 3
63 | Cc1nc(-c2cncc(OC(F)F)c2)ccc1N [Compound A4] | 1

system: Setaria faberi (SETFA); experiment: Post-emergence herbicidal activity (B2); assay type: in vivo; settings: Test B2a, 1000 g/ha, evaluated after 13 days, 5=total damage to plant, 0=no damage to plant
How it was run: as §2

Row | Compound | SETFA damage score
64 | N#Cc1cncc(-c2ccc(N)c(C(F)(F)F)n2)c1 [Compound A2] | 5
65 | Fc1cncc(-c2ccc(N3CCC3)c(C(F)(F)F)n2)c1 [Compound A63] | 5
66 | Fc1cncc(-c2ccc(NCCc3ccccc3)c(C(F)(F)F)n2)c1 [Compound A49] | 5
67 | Fc1cncc(-c2ccc(N3CCCC3)c(C(F)(F)F)n2)c1 [Compound A40] | 5
68 | Fc1cncc(-c2ccc(N3CCOCC3)c(C(F)(F)F)n2)c1 [Compound A39, 4-[6-(5-fluoro-3-pyridyl)-2-(trifluoromethyl)-3-pyridyl]morpholine] | 4
69 | Fc1cncc(-c2ccc(NCC3CCC3)c(C(F)(F)F)n2)c1 [Compound A51, N-(cyclobutylmethyl)-6-(5-fluoro-3-pyridyl)-2-(trifluoromethyl)pyridin-3-amine] | 4
70 | Cc1nc(-c2cncc(OC(F)F)c2)ccc1N [Compound A4] | 4

system: Alopecurus myosuroides (ALOMY); experiment: Post-emergence herbicidal activity (B2); assay type: in vivo; settings: Test B2a, 1000 g/ha, evaluated after 13 days, 5=total damage to plant, 0=no damage to plant
How it was run: as §2

Row | Compound | ALOMY damage score
71 | N#Cc1cncc(-c2ccc(N)c(C(F)(F)F)n2)c1 [Compound A2] | 1
72 | Fc1cncc(-c2ccc(N3CCC3)c(C(F)(F)F)n2)c1 [Compound A63] | 0
73 | Fc1cncc(-c2ccc(NCCc3ccccc3)c(C(F)(F)F)n2)c1 [Compound A49] | 0
74 | Fc1cncc(-c2ccc(N3CCCC3)c(C(F)(F)F)n2)c1 [Compound A40] | 0
75 | Fc1cncc(-c2ccc(N3CCOCC3)c(C(F)(F)F)n2)c1 [Compound A39, 4-[6-(5-fluoro-3-pyridyl)-2-(trifluoromethyl)-3-pyridyl]morpholine] | 0
76 | Fc1cncc(-c2ccc(NCC3CCC3)c(C(F)(F)F)n2)c1 [Compound A51, N-(cyclobutylmethyl)-6-(5-fluoro-3-pyridyl)-2-(trifluoromethyl)pyridin-3-amine] | 1
77 | Cc1nc(-c2cncc(OC(F)F)c2)ccc1N [Compound A4] | 1

system: Triticum aestivium (TRZAW); experiment: Post-emergence herbicidal activity (B2); assay type: in vivo; settings: Test B2a, 1000 g/ha, evaluated after 13 days, 5=total damage to plant, 0=no damage to plant
How it was run: as §2

Row | Compound | TRAZW damage score
78 | N#Cc1cncc(-c2ccc(N)c(C(F)(F)F)n2)c1 [Compound A2] | 0
79 | Fc1cncc(-c2ccc(N3CCC3)c(C(F)(F)F)n2)c1 [Compound A63] | 0
80 | Fc1cncc(-c2ccc(NCCc3ccccc3)c(C(F)(F)F)n2)c1 [Compound A49] | 0
81 | Fc1cncc(-c2ccc(N3CCCC3)c(C(F)(F)F)n2)c1 [Compound A40] | 0
82 | Fc1cncc(-c2ccc(N3CCOCC3)c(C(F)(F)F)n2)c1 [Compound A39, 4-[6-(5-fluoro-3-pyridyl)-2-(trifluoromethyl)-3-pyridyl]morpholine] | 0
83 | Fc1cncc(-c2ccc(NCC3CCC3)c(C(F)(F)F)n2)c1 [Compound A51, N-(cyclobutylmethyl)-6-(5-fluoro-3-pyridyl)-2-(trifluoromethyl)pyridin-3-amine] | 2
84 | Cc1nc(-c2cncc(OC(F)F)c2)ccc1N [Compound A4] | 1
